Test [1] has as its system premature termination codons (PTC). The settings on record: genetic disorders with premature termination codons; Welch E M et al, Nature 2007; cited from earlier work.
Test [2] deals with CHO cells. Put plainly: Live cell tRNA:tRNA FRET imaging before and after cycloheximide treatment. The format is cell-based. As to conditions: CHO cells transfected with rhodamine 110 (donor) and Cy3 (acceptor) labeled bulk yeast tRNA; same cells imaged prior to and following treatment. On the procedure: (§1) Fluorescent labeled tRNA were then introduced into live HEK-293, HeLa and CHO cells, employing a transfection protocol. One day prior to the transfection experiment, the cells were seeded on fibronectin-coated glass slides in a 24-well plate. On the following day, the growth medium was removed and 0.5 ml of fresh medium was added to each well containing the sub-confluent monolayers. 10 minutes later, 0.1 ml of the labeled-tRNA mixed with the transfection reagent and serum-free media were added to each well. The plate was incubated at 37° C. in a 5% CO2 incubator for 6-8 hr, followed by fixation with 4% paraformaldehyde for 20 min and mounting using fluorescent mounting medium. The fixed cells on glass slides were then visualized employing a spinning disk confocal microscope.
(§2) In order to determine the imaging parameters to be employed in the following experiments, including the degree of non-specific signal stemming from the cross-stimulation of different fluorophores, cells were transfected with donor only and with acceptor only, and imaged in the exact conditions employed for the FRET measurement. The calibration coefficients for computing the NFret (corrected FRET) image were NFret=FRET−0.011*donor−0.004*acceptor. […]

Test [3] relates to HEK cells. Described as above. The format is cell-based. As to conditions: HEK cells transfected with rhodamine 110 (donor) and Cy3 (acceptor) labeled bulk yeast tRNA; same cells imaged prior to and following treatment. On the procedure:
as §1, §2

Consider `O=C(O)c1cccc(-c2noc(-c3ccccc3F)n2)c1` [PTC124], for which the “amount of required protein produced” value in test [1] is reported as 1-5 % of normal concentrations.

Take `C[C@@H]1C[C@@H]([C@H](O)CC2CC(=O)NC(=O)C2)C(=O)[C@@H](C)C1` [cycloheximide]: the FRET signal intensity entry in test [2] and in test [3] was “increase in FRET signal intensity” in each case.
